The results in this text go back to patent US6071947A, “Indolyl-pyrrolydenemethylpyrrole derivatives and process for their preparation” (Pharmacia & Upjohn S.p.A., priority 1997, dated 2000).

Structures can show the parent of a compound that is named as a salt. Where two headings read alike, the source gives them in different places.

Series [1] has as its system Delayed-Type Hypersensitivity. As to the kind of experiment: Test n° 4: in vivo DTH (Delayed-Type Hypersensitivity) assay, SRBC-induced footpad thickness increase. Also noted: species or system female C57 B1/6 mice. As to conditions: Mus musculus, read-out: DTH ED30 os.
Experimental: Comparative in Vivo Activity Evaluation by DTH Assay
The immunosuppressive activity of the compounds of the invention was evaluated in vivo by DTH (Delayed-Type Hypersensitivity) assay. According to the test, sheep red blood cells (SRBC) (1×10^5 cells) suspended in 500 mcL saline, were injected i.v. into the tail vein of female C57 B1/6 mice (8-9 week old). Five days later 1×10^8 SRBC suspended in 50 mcL saline were injected into the left hind footpad. The increase in footpad thickness was measured with a dial micrometer 24 h after challenge. The test compounds were given daily for six days at different doses starting on the day of priming.
Series [2] is described as follows: Test n° 5: in vivo bioavailability evaluation after oral administration. The conditions noted are these: rat, 10 mg/kg.
Experimental: In Vivo Bioavailability Evaluation
Aim of the study is to determine the pharmacokinetics and the oral bioavailability of the instant compounds in rats.
Species/strain/sex: rat/Lewis/male
No. formulations: 1 oral; 1 intravenous
No. animals/formulation: 3+2 controls (+an ulterior rat treated with the iv formulation); total 9
Dosages: iv: 1 mg salt/kg; oral: 10 mg salt/kg
Vehicles: iv: a solution at the conc. of 5 mg/ml in PEG 400/Tween 80 (6:1 v:v) was prepared, then diluted with dextrose at the final concentration of 0.5 mg/ml; oral: a solution at the concentration of 5 mg/ml in Cremophor ELP/EtOH abs (6.5:3.5 v:v) was prepared, then diluted with saline at the final concentration of 1 mg/ml
Experimental: Three cannulated rats/formulation were treated. One rat/formulation was only treated with the vehicle, as basal sample. The intravenous administration was given into the caudal vein as bolus; the oral administration by gastric gavage as solution. […] Plasma was immediately obtained by centrifugation (10000 rpm for 3 min) and stored in labelled tubes at -30° C. till analysis.
Analytical assay: the extraction of the compounds was performed by protein precipitation by adding 100 mcl of acetonitrile to 25 mcl of plasma. The concentrations of the compounds (as free bases) in plasma were determined by LC-MS method. Column: APEX CN RP 5 mc, 10×4 mm (Jones chromatography); mobil phase: 70% acetonitrile/30% 1 mM ammonium formate +0.01% triethylamine adjusted to pH 2.0 with formic acid; flow rate: 1 ml/min; injection volume: 10 mcL; oven temperature: 45° C.; MS detection by APCI using MRM positive ion; MRM transition: 330 m/z>239 m/z, retention time: 1.4 min; LLOQ: 5.03 ng/ml; ULOQ: 10060 ng/ml.
Series [3] has as its system Th2 murine cells D10-G4.1 (ATCC TIB 224). As to the kind of experiment: Inhibition of IL-2 proliferation induced activity (D10 cells, 3H-TdR uptake). It is filed as cell-based. The procedure:
Inhibition of IL-2 Proliferation Induced Activity
The Th2 murine cells D10-G4.1 (ATCC TIB 224) are IL-2 dependent for their growth. They are cultured in complete RPMI 1640 medium enriched with rhIL-2 (6 ng/ml) and ConA (6 ng/ml).
For testing the inhibitory effects of the compounds of the invention on IL-2 activity, D 10 cells are washed twice with complete medium, resuspended at 10^5 cells/ml in the same medium and triplicately distributed (10^4 cells/well) in flat bottomed 96 well plates. […] and […] at different concentrations are simultaneously added to the cells. The cultures are then incubated at 37° C. in a humidified 5% CO2 incubator for 48 h, the last 18 h in the presence of 0.2 μCi of ^3 H-TdR.
Uptake of 3H-TdR in the cells (cpm) is taken as a measure of cell proliferation.

[4] abbreviates: oral (os), daily for six days, dose able to reduce by 30% the footpad thickness increase compared to controls, 24 h after challenge, mice.

As a reminder, the bioavailability is dose-corrected exposure relative to a reference, in per cent. High values mean good availability, low ones poor availability. As for `CCCCCCCCCCCC1=NC(=Cc2[nH]c(-c3cc4ccccc4[nH]3)cc2OC)C=C1.Cl` [PNU 166823, 2-(1H-indol-2-yl)-4-methoxy-5-[(5-undecyl-2H-pyrrol-2-ylidene)methyl]-1H-pyrrole, hydrochloride], the ED30 in series [1] (24 h) amounted to 8.8 mg/kg. The compound also yielded a bioavailability in series [2] (in vivo) of 5%.
By inhibition is commonly meant the relative decrease from the control value, in per cent. Turning to `CCCCCC1=NC(=Cc2[nH]c(-c3cc4ccccc4[nH]3)cc2OC)C=C1.Cl` [PNU 190192, 2-(1H-indol-2-yl)-4-methoxy-5-[(5-pentyl-2H-pyrrol-2-ylidene)methyl]-1H-pyrrole, hydrochloride], the ED30 in series [1] (setting [4]) was 7.1 mg/kg. Moreover, the 3HTdR uptake is given as 57325 (1280) cpm in series [3] (10 ng/ml, mean cpm from triplicate wells (SE), vehicle 61231 (1193)); 29681 (1528) cpm in series [3] (30 ng/ml, mean cpm from triplicate wells (SE), vehicle 61231 (1193)); 1388 (62) cpm in series [3] (0.1 ug/mL). Moreover, in series [3] (Mus musculus, 10 ng/ml, 48 h, read-out: % inhibition vs vehicle), the inhibition at 0.01 µg/mL amounted to 6%. The inhibition at 0.03 µg/mL in series [3] (Mus musculus, 30 ng/ml, 48 h, read-out: % inhibition vs vehicle) was 52%. The inhibition at 0.1 µg/mL in series [3] (Mus musculus, 100 ng/ml, 48 h, read-out: % inhibition vs vehicle) is 98%. This compound registered a bioavailability in series [2] (plasma) of 38%.
In the case of `COc1cc(-c2cc3ccccc3[nH]2)[nH]c1C=C1C=CC(C)=N1.Cl` [PNU 190364, 2-(1H-indol-2-yl)-4-methoxy-5-[(5-methyl-2H-pyrrol-2-ylidene)methyl]-1H-pyrrole, hydrochloride], the ED30 in series [1] (setting [4]) amounted to 6.6 mg/kg. Further, the bioavailability in series [2] (plasma) came to 82%.
Take `CC1=NC(=Cc2[nH]c(-c3cc4ccccc4[nH]3)cc2OCc2ccccc2)C=C1` [PNU 190537, 2-(1H-indol-2-yl)-4-benzyloxy-5-[(5-methyl-2H-pyrrol-2-ylidene)methyl]-1H-pyrrole, hydrochloride]: the ED30 in series [1] (setting [4]) is 11.9 mg/kg. The bioavailability in series [2] (plasma) came to 20%.
